# “Also recorded” adds a separate entry of the source. Where two headings read alike, the source gives them in different places.
# Experiments:
# Format in all cases: cell-based
# primary human adipocytes = assay: Inhibition of isoproterenol stimulated lipolysis in human subcutaneous adipocytes; details: isoproterenol 100 nM, adipocyte primary cultures from human subcutaneous fat, FIG. 2
# hRUP38 = target: T1, hRUP38 (Homo sapiens, UniProt P49019); assay: Adenylyl cyclase / cAMP Whole Cell assay in CHO cells stably transfected with hRUP38
# T1 construct: expressed in transfected cells
# T1 sequence (P49019 whole entry K94N/T173P/F198L/H253R/I317M/I346M): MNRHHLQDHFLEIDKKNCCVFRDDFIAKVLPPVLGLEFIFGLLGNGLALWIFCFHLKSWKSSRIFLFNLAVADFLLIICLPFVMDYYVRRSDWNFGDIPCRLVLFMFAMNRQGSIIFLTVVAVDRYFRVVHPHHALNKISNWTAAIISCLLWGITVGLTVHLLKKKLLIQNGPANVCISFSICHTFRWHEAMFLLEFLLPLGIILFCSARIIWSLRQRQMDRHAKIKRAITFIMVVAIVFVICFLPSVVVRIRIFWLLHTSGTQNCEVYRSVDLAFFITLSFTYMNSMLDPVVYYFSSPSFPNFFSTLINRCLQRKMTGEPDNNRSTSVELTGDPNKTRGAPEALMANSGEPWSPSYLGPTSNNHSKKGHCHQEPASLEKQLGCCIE
# Procedure: A modified Flash Plate™ Adenylyl Cyclase kit (New England Nuclear; Cat. No. SMP004A) was utilized for direct identification of candidate compounds as agonists to hRUP38 (Seq. Id. Nos. 1 & 2) or hRUP25 (Seq. Id. Nos. 3 & 4) in accordance with the following protocol:
# CHO cells stably transfected with hRUP38 were harvested from flasks via non-enzymatic means. The cells were washed in PBS and resuspended in the manufacturer's Assay Buffer. […] To these wells, 100,000 cells in 50 μl of Assay Buffer were added and the mixture was then incubated for 30 minutes at room temperature, with gentle shaking. Following the incubation, 100 μl of Detection Buffer was added to each well, followed by incubation for 2-24 hours. Plates were counted in a Wallac MicroBeta™ plate reader using “Prot. #31” (as per manufacturer instructions).
# hRUP25 = target: T2, hRUP25 (Homo sapiens, UniProt Q8TDS4); assay: Adenylyl cyclase assay in CHO cells expressing hRUP25; details: FIG. 1 screening data
# T2 construct: expressed in transfected cells; host or cells: CHO cells
# T2 sequence (Q8TDS4 whole entry): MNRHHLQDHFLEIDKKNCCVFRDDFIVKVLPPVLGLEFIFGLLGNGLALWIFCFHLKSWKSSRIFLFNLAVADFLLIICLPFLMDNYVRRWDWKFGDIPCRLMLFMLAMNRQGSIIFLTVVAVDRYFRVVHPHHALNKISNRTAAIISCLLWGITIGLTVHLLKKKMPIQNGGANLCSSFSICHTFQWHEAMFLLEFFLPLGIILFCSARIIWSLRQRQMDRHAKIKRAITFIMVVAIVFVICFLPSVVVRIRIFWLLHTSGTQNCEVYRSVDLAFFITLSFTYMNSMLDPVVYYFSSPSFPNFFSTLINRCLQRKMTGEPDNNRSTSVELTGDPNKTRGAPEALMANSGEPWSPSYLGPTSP
# Text: FIG. 1. FIG. 1 presents screening data via adenylyl cyclase assay for hRUP38. […] 1-Isopropyl-1H-benzotriazole-5-carboxylic acid has no effect on CHO cells expressing hRUP25.
# A modified Flash Plate™ Adenylyl Cyclase kit (New England Nuclear; Cat. No. SMP004A) was utilized for direct identification of candidate compounds as agonists to hRUP38 (Seq. Id. Nos. 1 & 2) or hRUP25 (Seq. Id. Nos. 3 & 4) in accordance with the following protocol: […]
structure (smiles),measurement,setting,value
"CC(C)n1nnc2cc(C(=O)O)ccc21 [Example 6.1, 1-Isopropyl-1H-benzotriazole-5-carboxylic acid]",inhibition of isoproterenol stimulated lipolysis,primary human adipocytes,dose-dependent manner comparable to that of nicotinic acid; also recorded: dose-dependant manner comparable to that of nicotinic acid
same,EC50,"hRUP38; average of seven (7) trials, read-out: hRUP38 (EC50) cAMP Whole Cell",388 nM
same,EC50,"hRUP38; inhibition of forskolin stimulated cAMP, hRUP38-expressing CHO cells, read-out: EC50, adenylyl cyclase assay for hRUP38 (FIG. 1)",166 nM
same,effect on CHO cells expressing hRUP25,hRUP25,no effect
